Series [1] relates to accumulation of sorbitol in the crystalline lenses. Description: Inhibition of accumulation of sorbitol in crystalline lenses of diabetic rats. Format: in vivo, Sprague Dawley rats. Here is the method:
(§1) 2.1 Inhibition of accumulation of sorbitol in crystalline lenses and nerves of diabetic rats:
(§2) The effects of the products according to the invention on the proportion of plasma glucose and the accumulation of sorbitol in the crystalline lenses and sciatic nerves of rats made diabetic by streptozotocin were examined by the method of M. J. Peterson, et al (Metabolism, 28, 456-461 (1979)).
(§3) Fasted Sprague Dawley rats were made diabetic by intraperitoneal injection of streptozotocin (75 mg/kg). The product under test was orally administered at a dose of 25 mg/kg after 0, 7 and 24 hours. The rats were sacrificed 27 hours after induction of diabetes. The crystalline lenses and sciatic nerves were taken and preserved at -20° C. until analysed. The crystalline lenses and sciatic nerves were homogenized in water and the proteins were precipitated from ethanol. The precipitate was eliminated by centrifuging and the supernatant liquid was lyophylised. The sorbitol in the sample was determined by the method of B. Bjorkqvist (J. of Chromatograph, 218, 65-71 (1981)), adapted by A. Lenaers et al. (Arch. Intern. Physiol. Bioch., 91, B, 62-63 (1983)).
(§4) The sample was dissolved in pyridine containing galactitol as an internal standard. Derivatives were formed therefrom by phenylisocyanate during incubation for 1 hour at 60° C. The reaction was then stopped by adding methanol and the derivatives were separated and determined by HPLC.
(§5) The results are expressed as percentage inhibition of the accumulation of sorbitol, compared with the controls.

Series [2] concerns accumulation of sorbitol in the sciatic nerves. In words: Inhibition of accumulation of sorbitol in sciatic nerves of diabetic rats. Format: in vivo, Sprague Dawley rats. The note with it: oral 25 mg/kg at 0, 7 and 24 h, sacrificed 27 h. As for the experimental part: as §1, §2, §3, §4, §5
The next series has as its system mice. In words: Teratogenic effect on mice. Format: in vivo. The note with it: oral doses of 100 mg/kg and 1 000 mg/kg.
Series [3] has as its system accumulation of sorbitol in the sciatic nerves. Description: Preventive effect of single dose: sorbitol in sciatic nerves. Format: in vivo, Sprague Dawley rats. The following applies: 10 mg/kg oral. As for the experimental part:
(§6) 2.3. In vivo effects of a single dose of compound No. 2 (CP 3192 AR) on the variation in the proportion of plasma glucose and the accumulation of sorbitol in the crystalline lenses and sciatic nerves of diabetic rats.
(§7) 2.3.1. Preventive effect. CP 3192 AR was administered simultaneously with the induction of diabetes. The experiment was performed on 33 male Sprague Dawley rats weighing about 200 g.
(§8) At time 0 hours, 3 rats were sacrificed and used as non-diabetic controls. 30 fats fasted the previous day were made diabetic by an intraperitoneal injection of streptozotocin (75 mg/kg). A dose of 10 mg/kg of CP 3192 AR was simultaneously administered orally to 15 of the rats. The other 15 were given a placebo. 3 control rats and 3 rats treated with CP 3192 AR were sacrificed 2, 4, 8, 24 and 48 hours after induction of diabetes.
(§9) An estimate was made of the effects of the product on the proportion of plasma glucose and the sorbitol content of the crystalline lenses and sciatic nerves.

Series [4] is described as follows: Preventive effect of single dose: plasma glucose. The following applies: for Plasma glucose, treated: 10 mg/kg oral. Format: in vivo, Sprague Dawley rats. As for the experimental part:
as §6, §7, §8, §9

Regarding `CC(=O)OCN1C(=O)N(COC(C)=O)C2(C1=O)c1ccccc1-c1ccccc12` [Compound 2, bis-(1',3'-acetoxymethyl)-spiro-/fluorene-9,4'-imidazolidine/-2',5'-dione], in series [1] (oral 25 mg/kg at 0, 7 and 24 h, sacrificed 27 h), the “Inhibition of accumulation of sorbitol in vivo, crystalline lenses” value is given as 86%. Also, the “inhibition of accumulation of sorbitol in crystalline lenses and sciatic nerves (in words)” value in series [1] (oral 25 mg/kg, lenses and sciatic nerves) is “particularly active”. Moreover, the “Inhibition of accumulation of sorbitol in vivo, in sciatic nerves” value in series [2] is reported as 85%. The teratogenic effect entry with mice was “does not have a mutagenic effect in the Ames test or teratogenic effect on mice”. The “Accumulation of sorbitol in sciatic nerves, treated” value is 1.23 ± 0.2 µg in series [3] (2 h, p < 0.05); 1.8 ± 0.2 µg in series [3] (4 h, p < 0.005); 1.8 ± 0.5 µg in series [3] (8 h, p < 0.0005); 4.0 ± 1.0 µg in series [3] (24 h, p < 0.05); 4.6 ± 1.7 µg in series [3] (48 h, p < 0.05). Besides, the “Plasma glucose, treated” value in series [4] (2 h) was 436 ± 45 mg/100 ml; in series [4] (4 h) it was 359 ± 45 mg/100 ml; in series [4] (8 h) it was 264 ± 73 mg/100 ml; in series [4] (24 h), 485 ± 35 mg/100 ml; in series [4] (48 h), 447 ± 34 mg/100 ml. Besides, the “effect on the proportion of plasma glucose” value in series [4] (single oral dose 10 mg/kg) was “no effect”.
